We go through four compounds from patent US10967029B2, “Method of using Cistanche tubulosa extract to prevent, slow down, or treat an eye disease caused by oxidative stress” (Sinphar Pharmaceutical Co., Ltd., priority 2014, dated 2021).

Converted amounts (≈) assume the structure as drawn. Like-named read-outs stand apart in the source and are kept apart here.

Data set [1] concerns RPE cells. The experiment in a line: Cell viability and growth measurement of RPE cells (MTT assay), cytotoxicity test. As to conditions: cytotoxicity to RPE cells, 24 hours. It counts as cell-based. The method, then: The cell culturing comprises the following steps. • 1.
Before experiments, the medium was replaced by serum-free medium. […] After placed in an incubator, the cells were cultured for 24 hours after treated by various concentrations of embodiments 1-5. Next, 1.0 mg/mL 3-(4,5-Dimethylthiazol-2-yl)-2,5-diphenyltetrazolium bromide (MTT) was added and reacted at 37° C. for 1 hour. Afterwards, 200 μL dimethyl sulfoxide (DMSO) was added into each well and shake in the dark at room temperature for 10 minutes after slight mixing. After the residual cells were completely dissolved, an enzyme immunoassay analyzer (MRX microplate reader, USA) was used to detect the 550 nm absorbance of each well. The cells untreated by embodiments were used as a control group after culturing for 24 hours.
One purpose of the example 1 is to test the cytotoxicity of the embodiments 1-5 to the RPE cells and the promotion of the embodiments 1-5 to the RPE cell growth. The mitochondrial enzyme of live cells can reduce the MTT to formazan of purple crystal dissolved by DMSO. In short, the metabolic activity of cells is used to determine whether cells are alive or not. The measured dissolving absorbance is equal to the cell viability. Therefore, the more the cells alive, the higher the absorbance. The calculating formula of the cell viability was shown below. Cell viability (%)=(light absorbance after cells treated by drugs for 24 hours/light absorbance of the control group after 24 hours)×100%
If P<0.05, it indicates a significant difference.
Referring to FIGS. 1-5, which are diagrams showing cytotoxicity testing results according to the instant disclosure respectively.
(Tetrazolium assays rely on reduction of a dye to a coloured formazan, in cell work by metabolically active cells.)

Data set [2] deals with RPE cells. Type of data set: cell-based. As to conditions: 0.1 mM H2O2. The method, then: (§1) The cell culturing comprises the following steps. • 1. RPE cell clones were taken out from anti-frozen tubes in liquid nitrogen and quickly moved to a sterile hood after thawed in 37° C. water bath for 1 minute. RPE cell clones were taken out and placed in 10 cm dishes having 10 mL DMEM (Dulbecco's Modified Eagle Medium) therein. 10% inactivated fetal bovine serum (FBS), 2 mM L-glutamine, 100 U/mL penicillin, and 100 µg/mL streptomycin were added into the DMEM. • 2. The dishes were placed in a 37° C. incubator and cultured in conditions of a mixture gas of 95% air and 5% CO2, as well as 70% humidity. The old mediums were replaced by fresh mediums every 3 days. Serum-free DMEM was used instead of the mediums before performing experiments. • 3. When cells proliferated to nearly saturation, the numbers of cells were counted by a cell counter. […] Since RPE cells are attachment type cells, the medium containing the cells was transferred into 15 mL centrifugation tubes and then centrifuged at 72 g for 5 mines at room temperature when the medium was replaced. After centrifugation, the supernatant was removed and then fresh medium was added for culturing.
(§2) Before experiment, the medium was replaced by serum-free medium. Fixed quantity of RPE cells (2×10^5 cells/mL) were respectively placed in 96 wells of a plate. […] Next, different concentrations of oxidative stress inducer were added to treat the cells. […] The blue light having a wavelength of 480 nm and an illuminance of 350 lux was emitted by a blue light-emitting-diode (LED). Subsequently after treated by irradiating with blue light for 7 days or oxidative stress inducer for 24 hours, 0.5 mg/mL of MTT was added and reacted at 37° C. for 2 hours. Afterwards, 200 μL DMSO was added to each well. After slight mixing, the plate was vibrated in the dark for 10 minutes. After completely dissolving the residual cells, the enzyme immunoassay analyzer was used to detect the absorbance of each well. The cells untreated by oxidative stress inducers and embodiments were used as the control group. […]

Data set [3] relates to RPE cells. The note with it: for most effective action concentration range to t-BHP: t-BHP-induced cytotoxicity. The method, then:
as §1, §2

Data set [4] has as its system RPE cells. The experiment in a line: Protective effect to blue light irradiation-induced cytotoxicity (MTT assay). The note with it: for most effective action concentration range to blue light irradiation: blue light-induced cytotoxicity. The method, then:
as §1
Before experiment, the medium was replaced by serum-free medium. Fixed quantity of RPE cells (2×10^5 cells/mL) were respectively placed in 96 wells of a plate. […] Next, different concentrations of oxidative stress inducer were added to treat the cells. […] The blue light having a wavelength of 480 nm and an illuminance of 350 lux was emitted by a blue light-emitting-diode (LED). […] Afterwards, 200 μL DMSO was added to each well. After slight mixing, the plate was vibrated in the dark for 10 minutes. After completely dissolving the residual cells, the enzyme immunoassay analyzer was used to detect the absorbance of each well. The cells untreated by oxidative stress inducers and embodiments were used as the control group.
The statistical analysis was performed by Student's t-test or one way ANOVA. If P<0.05, it indicates a significant difference.
The concentrations of embodiment 3 were 15.625, 31.25, and 62.5 μg/mL. […]

Data set [5] deals with RPE cells. The experiment in a line: Protective effect to NaN3-induced cytotoxicity (MTT assay). As to conditions: 10 mM NaN3 (viability about 50% without treatment); medium and high concentrations. Here is the method:
as §1, with “After centrifugation, the supernatant was removed and then fresh medium was added for culturing.” left out
Before experiment, the medium was replaced by serum-free medium. Fixed quantity of RPE cells (2×10^5 cells/mL) were respectively placed in 96 wells of a plate. […] After completely dissolving the residual cells, the enzyme immunoassay analyzer was used to detect the absorbance of each well. […]

As to `C[C@@H]1O[C@@H](O[C@@H]2[C@@H](O)[C@H](OCCc3ccc(O)c(O)c3)O[C@H](CO)[C@H]2OC(=O)/C=C/c2ccc(O)c(O)c2)[C@H](O)[C@H](O)[C@H]1O` [Embodiment 3, Acteoside], in the data set with RPE cells [1], the IC25 (commonly the concentration needed for an effect of 25%) is 31.25 µg/mL (≈ 50 µM) and the IC75 (commonly the concentration at which the effect reaches the 75% level) came out at 125 µg/mL (≈ 200 µM). In addition, the IC50 (commonly the concentration at which inhibition is half-maximal) in the data set on RPE cells [1] (read-out: IC50) worked out at 62.5 µg/mL (≈ 100 µM). For the same compound, the “protection of cells from H2O2 damage” value in the data set on RPE cells [2] is listed as “protected”. Moreover, in the data set with RPE cells [3], the “cytotoxicity response at high concentration” value is listed as “reasonable cytotoxicity responses were observed”; the “most effective action concentration range to t-BHP” value was “between low and medium concentrations”. Further, the cell viability – broadly, a per cent measure of how many cells are alive, often set against a control – in the data set on RPE cells [4] (5 days, 31.25 µg/mL) is given as “above 90%”. Moreover, the “most effective action concentration range to blue light irradiation” value in the data set on RPE cells [4] is “between low and medium concentrations”.
In the data set with RPE cells [1], echinacoside [Embodiment 2] yielded an IC25 of 50 µg/mL, an IC50 of 75 µg/mL and an IC75 of 100 µg/mL. The “protection of cells from H2O2 damage” value in the data set on RPE cells [2] is on record as “protected”. Moreover, the “most effective action concentration range to t-BHP” value with RPE cells [3] is “between low and medium concentrations”.
In the data set on RPE cells [1], `C[C@@H]1O[C@@H](O[C@@H]2[C@@H](O)[C@H](OCCc3ccc(O)c(O)c3)O[C@H](COC(=O)/C=C/c3ccc(O)c(O)c3)[C@H]2O)[C@H](O)[C@H](O)[C@H]1O` [Embodiment 4, Isoacteoside] yielded an IC25 of 31.25 µg/mL (≈ 50 µM) and an IC75 of 125 µg/mL (≈ 200 µM). Besides, in the data set with RPE cells [1] (read-out: IC50), the IC50 amounted to 62.5 µg/mL (≈ 100 µM). In the data set with RPE cells [5], the cell viability was approximately 100%. In addition, the “most effective action concentration range to blue light irradiation” value with RPE cells [4] is “between low and medium concentrations”.
In the data set on RPE cells [1], Tubuloside A [Embodiment 5] displayed an IC25 of 150 µg/mL, an IC50 of 200 µg/mL and an IC75 of 250 µg/mL. The “protection of cells from H2O2 damage” value in the data set on RPE cells [2] was “protected”. Further, the cell viability in the data set with RPE cells [5] was approximately 100%.
